Test results: article PMC9794608 (Frontiers in Veterinary Science, 2022)

Assays:
[1] = cited from earlier work
laboratory beagle dogs = test: Repeat dose tolerability: clinical observations, hematology, serum chemistry, coagulation, urinalysis; assay type: in vivo
Protocol: (§1) Laboratory Beagle dogs (Charles River Labs, Mattawan, MI) served as surrogates in testing compounds proposed for application in canine clinical cancer care. The animals were at least six months old and weighed 6.4–8.8 kg at the initiation of study. They had routine veterinary care and had not been used in any previous studies. The study was conducted in AAALAC-accredited animal facilities [Charles River Laboratories, Inc., Mattawan, MI; NIH Office of Laboratory Animal Welfare Assurance approval (https://olaw.nih.gov/assured/app/index.html)], under review, monitoring, and approval of the facility's Institutional Animal Care and Use Committee according to U.S. Public Health Service national guidelines and regulations for the care and use of laboratory animals. The study was not designed to incorporate Good Laboratory Practices (GLP) regulatory criteria. Animals on study were monitored daily or more frequently and body weights were recorded, while periodic specimens were obtained for laboratory analyses. Clinical pathology analyses were included for hematology, serum chemistry, coagulation, urinalysis, and chemical bioanalysis was accomplished for pharmacokinetics (PK) (Table 1, repeat dose study) (Charles River Laboratories, Mattawan, MI).
(§2) Six male and six female beagle dogs were enrolled in a parallel, three-arm, fixed, repeat oral-dose study. […] All dogs were dosed on study day 1 to obtain single dose PK samples, and then dosed serially days 4–20. Dogs were fasted overnight prior to dosing and fed ad libitum 2 h (hrs) following dose administration.
On days 10 and 15, a 2-h post-dose sample was collected. […] Treatment schedule and clinical pathology specimen sampling intervals are outlined in Table 1. […]
Sampling for hematology, serum chemistry, coagulation and urinalysis was conducted to facilitate monitoring treatment effects over various time points, and values obtained were compared to pre-treatment measurements for each subject (Table 1).

[2] = design: method as in PMID 32943547; conditions: combination with sapanisertib, p <0.001; cited from earlier work
[3] = Plasma pharmacokinetics after single and repeat oral dose, LC-MS/MS, non-compartmental analysis; assay type: in vivo, Beagle dogs; conditions: for Tmax: TMAX (trametinib in plasma), median (range)
Protocol: as §1
as §2, with “study. […] In Group 2, two male (23001, 23002) and two female (23501, 23502) dogs were given sapanisertib alone (0.1 mg/kg) every other day (p.o., QOD).” for “study.”
Plasma samples for PK were collected at pre-dose (-7 days), then beginning day 1 following the initial dose of each study group at 1, 2, 4, 8, 24, 48, and 72 h. On day 6, plasma samples were collected pre-dose, then 1, 2, 4, 8, and 24 h post-dose. On days 10 and 15, a 2-h post-dose sample was collected. On day 20, plasma samples were drawn at pre-dose and 1, 2, 4, 8, 24, 48, and 72 h post-dose. Treatment schedule and clinical pathology specimen sampling intervals are outlined in Table 1.
(§3) Each 50 μL aliquot of known concentration standards, quality control sample, or study sample was mixed with 200 μL of working internal standard solution (10 ng/mL in acetonitrile). The samples were vortexed and centrifuged. A 150 μL aliquot of the resulting supernatant was transferred to a clean 96-well plate, evaporated, and reconstituted with 100 μL of water/acetonitrile (40/60, v/v). An aliquot was injected onto an LC-MS/MS XBridge BEH C18 liquid chromatography system (Waters Associates, Framingham, MA) having 50 x 2.1 mm (2.5 μm particle size) column with an isocratic flow consisting of water/formic acid (100/0.1, v/v) and acetonitrile/formic acid (100/0.1, v/v) at a flow rate of 0.3000 mL/min for analysis. The analyte and internal standard were detected using an API 6500+ triple quadrupole LC-MS/MS system (AB Sciex, LLC, Framingham, MA) equipped with an ESI (TurboIonSpray®) ionization source operated in the positive ion mode.
A non-compartmental approach to PK analysis was employed using Phoenix WinNonlin v8.3 (Certara Corp, Cary, NC) that was validated per FDA 21CFR Part 11 regulations. The maximum plasma concentration (CMAX) and the time of maximum plasma concentration (TMAX) were recorded as observed values. […] AUCINF (the AUC from time zero to infinity) was calculated by extrapolation by dividing CLAST (the last measurable drug concentration) by the rate constant of the terminal phase, λZ. This constant was determined from the slope of the terminal phase of the concentration-time curve using uniformly-weighted least-squares as the estimation procedure and acceptance criteria of (i) adjusted r^2 > 0.8, (ii) includes > 3 time points in the terminal phase occurring after the TMAX. […]

cytochrome P450 CYP3A4 = conditions: cited from earlier work
[4] = Pilot single oral dose plasma trametinib concentrations (initial formulation); assay type: in vivo; conditions: fasted dogs
Protocol: as §3
These analytical findings, even under animal fasting conditions, were independently verified at the NCI Clinical Pharmacology Program. […] Consequently, trametinib was reformulated for this study by […] with equimolar dimethyl sulfoxide (DMSO) (Wedgewood Pharmacy, Swedesboro, NJ), consistent with the human formulation ([…]®, Novartis), and used for all subsequent evaluations. […]

[5] = ref MEKINIST Prescribing Information

| CMAX or AUC, male versus female dogs ([3]; Mann-Whitney, p > 0.05) | Cmax ([3]; both, beagle, dog, plasma, po, […], CMAX (trametinib in plasma), First dose (Day 1), trametinib […] p.o., alone or with sapanisertib 0.1 mg/kg (see label), arithmetic mean (%CV), n = 4) [ng/mL] | half-life ([3]; both, beagle, dog, plasma, po, […], T1/2 (trametinib in plasma), Steady-state (Day 20), trametinib […] p.o. q.d., mean (%CV), one subject of the trametinib-alone group excluded) [h] | Tmax ([3]; both, beagle, dog, plasma, po, […], First dose (Day 1), trametinib […] p.o., n = 4) [h] | Tmax ([3]; both, beagle, dog, plasma, po, […], Steady-state (Day 20), trametinib […] p.o. q.d., n = 4) [h] | Plasma trametinib concentration after single oral dose ([4]; 0.06 or 0.03 mg/kg, inconsistent, frequently below assay detection limit, for each dose one of two dogs below detection) [ng/mL] | Time to detection of trametinib in plasma post dose ([4]; single oral dose 0.06 or 0.03 mg/kg) [h] | Structure (SMILES) | Trametinib accumulation upon repeat daily dosing in humans [1] | Clearance of trametinib in humans [1, 5] [mL/min/kg] | Distribution volume of trametinib in humans [1, 5] [L/kg] | Dogs with minimal to marked increases in urine protein concentration (laboratory beagle dogs; Day 25, greater than pre-study values, 4 dogs per group) | Urine protein concentration, highest value (up to) (laboratory beagle dogs; Day 25, semi-quantitatively by urine dipstick) | Globulin concentration, times pre-study (up to) (laboratory beagle dogs; Days 7, 20, and/or 25) | Serum phosphorus concentrations, times pre-study (as low as) (laboratory beagle dogs; Days 7 and 20, both sexes in all groups) [x] | Individual animal fibrinogen concentration, times pretreatment (up to) (laboratory beagle dogs; various time points, most pronounced in Group 3) | Trametinib AUC in mice during combination treatment [2] | Induction of cytochrome P450 CYP3A4 (cytochrome P450 CYP3A4) |
| --- | --- | --- | --- | --- | --- | --- | --- | --- | --- | --- | --- | --- | --- | --- | --- | --- | --- |
| absence of significant differences | 0.64 | 58.8 | 1.5 | 2 | – | – | CC(=O)Nc1cccc(-n2c(=O)n(C3CC3)c(=O)c3c(Nc4ccc(I)cc4F)n(C)c(=O)c(C)c32)c1 [Trametinib, trametinib dimethyl sulfoxide] | up to six-fold | 1.2 | 3.1 | one male dog | ≥ 1,000 mg/dL | up to 1.45 x | ≥ 0.74 | up to 2.61 x | significantly increased | known inducer |
| – | – | – | – | – | < 0.1 | ≥ 24 | CC(=O)Nc1cccc(-n2c(=O)n(C3CC3)c(=O)c3c(Nc4ccc(I)cc4F)n(C)c(=O)c(C)c32)c1 [trametinib, as initially formulated, trametinib] | – | – | – | – | – | – | – | – | – | – |
